{
  "source": "paper PMC6679423",
  "about": "(International Journal of Molecular Sciences, 2019)",
  "type_in_all_cases": "in vitro ADME",
  "key": {"[1]": {"test_system": "CYP2D6, 3A5, 1A1 and 2C8", "experiment": "Contributions of other CYPs to N-desmethylvandetanib formation in human livers", "details": "with cytochrome b5", "procedure": "The contributions of these enzymes were calculated by relative activity factor because the activities of CYPs in Supersomes™ also need to be considered in addition to the relative contents of CYPs in the livers. […] Of CYPs in human liver, CYP3A4 is the major enzyme present in this human organ (~30% of the CYP hepatic complement), followed by CYP2C9 and 1A2 (~15% and ~13%, respectively), while CYP2C19, 2E1 2A6, 2D6, 2C8 and 3A5 are present in human liver at levels that range from ~2.5% to ~8.5% (see Reference for an overview)."}, "[2]": {"molecular_target": "T1, human recombinant CYP1A1 (Homo sapiens, UniProt P04798)", "T1 construct": "purchased Gentest Corp; host or cells: insect cells (baculovirus)", "T1 sequence (P04798 1-512)": "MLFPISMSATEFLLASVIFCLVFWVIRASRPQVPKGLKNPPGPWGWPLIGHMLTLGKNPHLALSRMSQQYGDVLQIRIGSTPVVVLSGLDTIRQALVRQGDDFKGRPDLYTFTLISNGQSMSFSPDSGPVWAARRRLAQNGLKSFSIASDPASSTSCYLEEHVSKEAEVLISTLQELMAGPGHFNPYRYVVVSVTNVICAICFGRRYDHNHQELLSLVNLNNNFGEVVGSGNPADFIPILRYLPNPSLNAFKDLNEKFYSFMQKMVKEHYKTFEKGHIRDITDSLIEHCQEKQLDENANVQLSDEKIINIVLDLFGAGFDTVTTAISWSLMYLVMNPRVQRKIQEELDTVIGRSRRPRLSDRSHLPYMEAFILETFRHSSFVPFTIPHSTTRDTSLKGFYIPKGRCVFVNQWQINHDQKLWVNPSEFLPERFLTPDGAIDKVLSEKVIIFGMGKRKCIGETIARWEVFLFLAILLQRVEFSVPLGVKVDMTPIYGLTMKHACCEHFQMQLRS", "experiment": "Vandetanib oxidation by human recombinant CYP1A1 (Supersomes)", "procedure": "(§1) Vandetanib was from LC Laboratories (Woburn, MA, USA). Ketoconazole, NADPH, methimazol and other chemicals were all purchased from Sigma-Aldrich (St. Louis, MO, USA). The purity of all chemicals met the standards of American Chemical Society, unless noted otherwise. All animal experiments were conducted in accordance with the Regulations for the Care and Use of Laboratory Animals (311/1997, Ministry of Agriculture, Czech Republic), which follows the Declaration of Helsinki. Male Wistar rats (~125–150 g; AnLab, Czech Republic), male C57BL/6 mice ([…]; CXR Bioscience Ltd., Dundee, UK), and male New Zealand rabbits (2.5–3 kg; AnLab, Czech Republic) were employed as animal models. Animals were placed in cages in temperature- and humidity-controlled rooms, acclimatized for five days and maintained at 22 °C with a 12 h light/dark period. Standardized diet and water were provided ad libitum. Rats, mice and rabbits used to prepare microsomal fraction from untreated animals were sacrificed by cervical dislocation, livers snap-frozen in liquid nitrogen and stored at −80 °C until further processing (see below). For controls, livers of the animals were removed immediately after sacrifice, divided into small pieces (~1 g), snap-frozen in liquid nitrogen, and stored at −80 °C until isolation of microsomal fractions. Pooled microsomes were used for all in vitro experiments in the present study and prepared from 10 livers/group for all animal species following established protocols. Microsomal fractions were stored at −80 °C until analysis. Protein concentrations in the microsomal fractions were assessed using the bicinchoninic acid protein assay with bovine serum albumin as a standard. Male human hepatic microsomes (pooled sample) (sample LOT: 3043885) were from Gentest Corp. (Woburn, MA, USA). Microsomes from livers of twelve human donors were obtained from Gentest Corp. (Woburn, MA, USA) (cat. no. HG43–1, HG103, HG74, HG93, HG24, HG27, HG23, HG32, HK31, HK34, HG03, and HG42). Each human microsomal sample has been characterized for CYP, FMO and protein contents and specific CYP activities by Gentest Corp. We reanalyzed each microsomal preparation for specific CYP, NADPH:CYP reductase (POR) and FMO activities by assays described in the protocols of Gentest Corp. Our data were similar to those reported by Gentest Corp. in their specification sheets. […]"}, "[3]": {"test_system": "human liver microsomes", "experiment": "Vandetanib metabolite formation by hepatic microsomes of 12 human donors", "procedure": "as §1, with “sheets. The content of CYP, specific CYP and FMO activities in each human hepatic microsomes [phenacetin-O-deethylation (CYP1A2), coumarin-7-hydroxylation (CYP2A6), (S)-mephenytoin-N-demethylase (CYP2B6), paclitaxel-6α-hydroxylation (CYP2C8), diclofenac-4’-hydroxylation (CYP2C9), (S)-mephenytoin-4′-hydroxylation (CYP2C19), bufuralol-1’-hydroxylation (CYP2D6), chlorzoxazone-6-hydroxylation (CYP2E1), testosterone-6β-hydroxylation (CYP3A4), lauric acid-12-hydroxylation (CYP4A), methyl-p-tolyl sulfide oxidase (FMO)] are shown in Table 2. Human recombinant enzymes were used in the forms of Supersomes™ and obtained from Gentest Corp. In Supersomes™ microsomal fractions were isolated from insect cells that are transfected with baculovirus constructs containing cDNA of human CYP enzymes (CYP1A1/2, 1B1, 2A6, 2B6, 2C8/9/18/19/, 2D6, 2E1, 3A4). These Supersomes™ also express NADPH:CYP oxidoreductase (POR). However, because they are microsomes (particles of broken endoplasmic reticulum), other enzymes (proteins) of the endoplasmic reticulum membrane (like NADH:cytochrome b5 reductase and cytochrome b5) are also expressed at basal levels in these Supersomes™. We also utilized Supersomes™ which over-expressed cytochrome b5, in a molar ratio of CYP to cytochrome b5 of 1 to 5. In Supersomes™ where cytochrome b5 was not over-expressed (see above) pure cytochrome b5 was added to reach a molar ratio of CYP to cytochrome b5 of 1 to 5. Reconstitution of Supersomes™ with purified cytochrome b5 was performed as described previously.” for “sheets.”"}},
  "data": [
    {"compound": "COc1cc2c(Nc3ccc(Br)cc3F)ncnc2cc1OCC1CCNCC1", "note": "[N-desmethylvandetanib]", "values": [
      {"measurement": "contribution in total of other human CYPs (CYP2D6, 3A5, 1A1 and 2C8) to N-desmethylvandetanib formation", "setting": "[1]", "result": "~ 0.4%"},
      {"measurement": "effect of cytochrome b5 on N-desmethylvandetanib formation", "setting": "[2]; CYP1A1 with vs without cytochrome b5", "result": "essentially no such effect"},
      {"measurement": "contribution of CYP1A1 to N-desmethylvandetanib formation in human liver", "setting": "[2]; without consideration of cytochrome b5", "result": "< 0.3", "unit": "%"},
      {"measurement": "N-desmethylvandetanib (M1) formed", "setting": "[3]; human hepatic microsomal sample HG03", "result": "3.639 peak area/(mg protein × min)"},
      {"measurement": "N-desmethylvandetanib (M1) formed", "setting": "[3]; human hepatic microsomal sample HG24", "result": "1.698 peak area/(mg protein × min)"},
      {"measurement": "N-desmethylvandetanib (M1) formed", "setting": "[3]; human hepatic microsomal sample HG32", "result": "0.870 peak area/(mg protein × min)"},
      {"measurement": "N-desmethylvandetanib (M1) formed", "setting": "[3]; human hepatic microsomal sample HG42", "result": "8.887 peak area/(mg protein × min)"},
      {"measurement": "N-desmethylvandetanib (M1) formed", "setting": "[3]; human hepatic microsomal sample HG43", "result": "1.830 peak area/(mg protein × min)"},
      {"measurement": "N-desmethylvandetanib (M1) formed", "setting": "[3]; human hepatic microsomal sample HG74", "result": "0.714 peak area/(mg protein × min)"},
      {"measurement": "N-desmethylvandetanib (M1) formed", "setting": "[3]; human hepatic microsomal sample HG93", "result": "0.966 peak area/(mg protein × min)"},
      {"measurement": "N-desmethylvandetanib (M1) formed", "setting": "[3]; human hepatic microsomal sample HG103", "result": "1.021 peak area/(mg protein × min)"},
      {"measurement": "N-desmethylvandetanib (M1) formed", "setting": "[3]; human hepatic microsomal sample HK31", "result": "4.124 peak area/(mg protein × min)"},
      {"measurement": "N-desmethylvandetanib (M1) formed", "setting": "[3]; human hepatic microsomal sample HK34", "result": "3.193 peak area/(mg protein × min)"}
    ]}
  ]
}
